Laboratory results: US5753660A, “Substituted sulfonylalkanoylamino hydroxyethylamino sulfonamide retroviral protease inhibitors” (G. D. Searle & Co., priority 1996, dated 1998)

What was measured:
HIV protease = molecular target: T1, HIV protease (Human immunodeficiency virus type 1 group M subtype B, UniProt P04585); test: HIV protease enzyme assay; format: biochemical; details: HIV protease 12.3 nanomolar; substrate 80 μM; pH 6.4; ambient temperature
T1 construct: HIV protease is diluted in the assay buffer to a final enzyme concentration of 12.3 nanomolar, based on a molecular weight of 10,780
Source text: The compounds of the present invention are effective HIV protease inhibitors. Utilizing an enzyme assay as described below, the compounds set forth in the examples herein disclosed inhibited the HIV enzyme. The preferred compounds of the present invention and their calculated IC50 (inhibiting concentration 50%, i.e., the concentration at which the inhibitor compound reduces enzyme activity by 50%) values are shown in Table 14. The enzyme method is described below. The substrate is 2-Ile-Nle-Phe(p-NO2)-Gln-ArgNH2. The positive control is MVT-101 (Miller, M. et al, Science, 246, 1149 (1989)] The assay conditions are as follows:
Assay buffer: 20 mM sodium phosphate, pH 6.4
The above described substrate is dissolved in DMSO, then diluted 10 fold in assay buffer. Final substrate concentration in the assay is 80 μM. HIV protease is diluted in the assay buffer to a final enzyme concentration of 12.3 nanomolar, based on a molecular weight of 10,780.
The final concentration of DMSO is 14% and the final concentration of glycerol is 18%. The test compound is dissolved in DMSO and diluted in DMSO to 10×the test concentration; 10 μl of the enzyme preparation is added, the materials mixed and then the mixture is incubated at ambient temperature for 15 minutes. The enzyme reaction is initiated by the addition of 40 μl of substrate. The increase in fluorescence is monitored at 4 time points (0, 8, 16 and 24 minutes) at ambient temperature. Each assay is carried out in duplicate wells.

HIV-1 = test: HIV inhibition assay in acutely infected CEM cells (tetrazolium/MTT based); format: cell-based; details: Human immunodeficiency virus 1, CCRF-CEM, 168 h, HIV-1 1000 TCID50, MTT, 7 days
Experimental: The effectiveness of various compounds were determined in the above-described enzyme assay and in a CEM cell assay.
The HIV inhibition assay method of acutely infected cells is an automated tetrazolium based calorimetric assay essentially that reported by Pauwles et al, J. Virol. Methods, 20, 309-321 (1988). Assays were performed in 96-well tissue culture plates. CEM cells, a CD4+ cell line, were grown in RPMI-1640 medium (Gibco) supplemented with a 10% fetal calf serum and were then treated with polybrene (2 μug/ml). An 80 μl volume of medium containing 1×10^4 cells was dispensed into each well of the tissue culture plate. To each well was added a 100 μl volume of test compound dissolved in tissue culture medium (or medium without test compound as a control) to achieve the desired final concentration and the cells were incubated at 37° C. for 1 hour. A frozen culture of HIV-1 was diluted in culture medium to a concentration of 5×10^4 TCID50 per ml (TCID50 =the dose of virus that infects 50% of cells in tissue culture), and a 20 μl volume of the virus sample (containing 1000 TCID50 of virus) was added to wells containing test compound and to wells containing only medium (infected control cells). Several wells received culture medium without virus (uninfected control cells). Likewise, the intrinsic toxicity of the test compound was determined by adding medium without virus to several wells containing test compound. In summary, the tissue culture plates contained the following experiments:
In experiments 2 and 4 the final concentrations of test compounds were 1, 10, 100 and 500 μg/ml. Either azidothymidine (AZT) or dideoxyinosine (ddI) was included as a positive drug control. […] DMSO was added to all control wells at an appropriate concentration.
Following the addition of virus, cells were incubated at 37° C. in a humidified, 5% CO2 atmosphere for 7 days. Test compounds could be added on days 0, 2 and 5 if desired. On day 7,post-infection, the cells in each well were resuspended and a 100 μl sample of each cell suspension was removed for assay. A 20 μL volume of a 5 mg/ml solution of 3-(4,5-dimethylthiazol-2-yl)-2,5-diphenyltetrazolium bromide (MTT) was added to each 100 μL cell suspension, and the cells were incubated for 4 hours at […] in a 5% CO2 environment. […] To each sample was added 100 μl of 10% sodium dodecylsulfate in 0.01N HC1 to lyse the cells, and samples were incubated overnight. The absorbance at 590 nm was determined for each sample using a Molecular Devices microplate reader. Absorbance values for each set of wells is compared to assess viral control infection, uninfected control cell response as well as test compound by cytotoxicity and antiviral efficacy.

IC50 (HIV protease) [nM]	Compound	EC50 (HIV-1) [nM]
4	CC(C)CN(C[C@@H](O)[C@H](Cc1ccccc1)NC(=O)[C@H](C)CS(=O)(=O)CCC(=O)N1CCNCC1)S(=O)(=O)c1ccc2c(c1)OCO2 [Example 4]	
63	CC(C)CN(C[C@@H](O)[C@H](Cc1ccccc1)NC(=O)[C@H](C)CSCC(=O)N1CCOCC1)S(=O)(=O)c1ccc2c(c1)OCO2 [Example 22]	
25	CC(C)CN(C[C@@H](O)[C@H](Cc1ccccc1)NC(=O)[C@H](C)CSCC(=O)N1CCSCC1)S(=O)(=O)c1ccc2c(c1)OCO2 [Example 24]	
22	CCOC(=O)CCCSC[C@@H](C)C(=O)N[C@@H](Cc1ccccc1)[C@H](O)CN(CC(C)C)S(=O)(=O)c1ccc2c(c1)OCO2 [Example 11]	
10	CC(C)CN(C[C@@H](O)[C@H](Cc1ccccc1)NC(=O)[C@H](C)CS(=O)(=O)CC(=O)NCC[N+]1([O-])CCOCC1)S(=O)(=O)c1ccc2c(c1)OCO2 [Example 5]	
27	CC(C)CN(C[C@@H](O)[C@H](Cc1ccccc1)NC(=O)[C@H](C)CS(=O)(=O)CC(=O)N1CCNCC1)S(=O)(=O)c1ccc2c(c1)OCO2 [Example 8]	
7	CC(C)CN(C[C@@H](O)[C@H](Cc1ccccc1)NC(=O)[C@H](C)CS(=O)(=O)CC(=O)N1CCN(C(=O)OC(C)(C)C)CC1)S(=O)(=O)c1ccc2c(c1)OCO2 [Example 7]	
10	CC(C)CN(C[C@@H](O)[C@H](Cc1ccccc1)NC(=O)[C@H](C)CS(=O)(=O)CC(=O)NCC[N+]1([O-])CCCC1)S(=O)(=O)c1ccc2c(c1)OCO2 [Example 2]	
4	CC(C)CN(C[C@@H](O)[C@H](Cc1ccccc1)NC(=O)[C@H](C)CS(=O)(=O)CC(CO)CO)S(=O)(=O)c1ccc2c(c1)OCO2 [Example 20]	
4	CC(C)CN(C[C@@H](O)[C@H](Cc1ccccc1)NC(=O)[C@H](C)CS(=O)(=O)CCC(=O)N1CCN(C(=O)OC(C)(C)C)CC1)S(=O)(=O)c1ccc2c(c1)OCO2 [Example 3]	
16	CC(C)CN(C[C@@H](O)[C@H](Cc1ccccc1)NC(=O)[C@H](C)CS(=O)(=O)CC(=O)N1CCS(=O)(=O)CC1)S(=O)(=O)c1ccc2c(c1)OCO2 [Example 10]	
75	CC(C)CN(C[C@@H](O)[C@H](Cc1ccccc1)NC(=O)[C@H](C)CSCC(=O)NCCN1CCCC1)S(=O)(=O)c1ccc2c(c1)OCO2 [Example 27]	
9	COC1O[C@H](CS(=O)(=O)C[C@@H](C)C(=O)N[C@@H](Cc2ccccc2)[C@H](O)CN(CC(C)C)S(=O)(=O)c2ccc3c(c2)OCO3)[C@@H](O)[C@H]1O (some centres unmarked) [Example 21]	
16	CC(C)CN(C[C@@H](O)[C@H](Cc1ccccc1)NC(=O)[C@H](C)CSCCC(=O)N1CCN(C(=O)OC(C)(C)C)CC1)S(=O)(=O)c1ccc2c(c1)OCO2 [Example 26]	
12	CC(C)CN(C[C@@H](O)[C@H](Cc1ccccc1)NC(=O)[C@H](C)CSCC(=O)N1CCN(C(=O)OC(C)(C)C)CC1)S(=O)(=O)c1ccc2c(c1)OCO2 [Example 23]	
6	CC(C)CN(C[C@@H](O)[C@H](Cc1ccccc1)NC(=O)[C@H](C)CS(=O)(=O)C[C@@H]1CCCN1)S(=O)(=O)c1ccc2c(c1)OCO2 [Example 18]	

Compound	IC50 (HIV protease) [nM]	EC50 (HIV-1) [nM]
CC(C)CN(C[C@@H](O)[C@H](Cc1ccccc1)NC(=O)[C@H](C)CS(=O)(=O)CCc1ccccn1)S(=O)(=O)c1ccc2c(c1)OCO2	3	6
CC(C)CN(C[C@@H](O)[C@H](Cc1ccccc1)NC(=O)[C@H](C)CS(=O)(=O)C[C@H]1CCCN1C(=O)OCc1ccccc1)S(=O)(=O)c1ccc2c(c1)OCO2 [Example 25]	6	43
CC(C)CN(C[C@@H](O)[C@H](Cc1ccccc1)NC(=O)[C@H](C)CS(=O)(=O)Cc1nc2ccccc2[nH]1)S(=O)(=O)c1ccc2c(c1)OCO2 [Example 15]	3	47
CC(C)CN(C[C@@H](O)[C@H](Cc1ccccc1)NC(=O)[C@H](C)CS(=O)(=O)CC(=O)c1ccccc1)S(=O)(=O)c1ccc2c(c1)OCO2 [Example 9]	4	39
CC(C)CN(C[C@@H](O)[C@H](Cc1ccccc1)NC(=O)[C@H](C)CS(=O)(=O)Cc1cn[nH]c1)S(=O)(=O)c1ccc2c(c1)OCO2 [Example 14]	4	81
CC(C)CN(C[C@@H](O)[C@H](Cc1ccccc1)NC(=O)[C@H](C)CS(=O)(=O)c1ccccn1)S(=O)(=O)c1ccc2c(c1)OCO2 [Example 19]	11	174
CC(C)CN(C[C@@H](O)[C@H](Cc1ccccc1)NC(=O)[C@H](C)CS(=O)(=O)CCC(=O)N1CCOCC1)S(=O)(=O)c1ccc2c(c1)OCO2 [Example 6]	24	123
CC(C)CN(C[C@@H](O)[C@H](Cc1ccccc1)NC(=O)[C@H](C)CS(=O)(=O)Cc1c[nH]cn1)S(=O)(=O)c1ccc2c(c1)OCO2 [Example 12]	7	187
CC(C)CN(C[C@@H](O)[C@H](Cc1ccccc1)NC(=O)[C@H](C)CS(=O)(=O)C[C@H]1CCCN1)S(=O)(=O)c1ccc2c(c1)OCO2 [Example 17]	4	160
CC(C)CN(C[C@@H](O)[C@H](Cc1ccccc1)NC(=O)[C@H](C)CS(=O)(=O)Cc1cc[nH]n1)S(=O)(=O)c1ccc2c(c1)OCO2 [Example 13]	5	71
CC(C)CN(C[C@@H](O)[C@H](Cc1ccccc1)NC(=O)[C@H](C)CS(=O)(=O)Cc1cncs1)S(=O)(=O)c1ccc2c(c1)OCO2 [Example 16]	4	21
